Data: the supplement of paper PMC4858399
Where a name gives a salt, the structure may show the parent alone.

Experiments:
Settings in all cases: exposure time 48 h
[1] = system: Caenorhabditis elegans N2; assay: AC50 for larval growth inhibition (Hill fit); higher = less potent
Outline: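 C. elegans N2 L1 larvae, synchronised and plated at 50 per well in 96-well plates, were exposed for 48 h at 20°C to 0.5–200 µM chemical in K-medium with killed OP50 and 1% DMSO. Log-transformed extinction from a COPAS Biosort served as worm size, averaged per well. Wells containing at least 10 worms entered the fit. A constrained Hill fit by weighted genetic-algorithm regression yielded the AC50, censored when out of range.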

[2] = system: Caenorhabditis elegans N2; assay: mean nematode size ln(EXT) after 48 h, plate-adjusted (DMSO control set to 6) (ln(EXT), control-adjusted); higher = larger nematodes / less growth inhibition
Outline: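 In K-medium with killed OP50, 1% DMSO and 0.5–200 µM chemical, synchronised N2 L1 larvae of C. elegans (50 per well) grew for 48 h at 20°C. Extinction was read for every worm on the Biosort, with debris removed by a growth model. Natural-log values averaged per well gave mean size, which was corrected per plate by subtracting the vehicle control mean and adding 6.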

[3] = system: Caenorhabditis elegans N2; assay: lowest effective concentration for larval growth inhibition (size below effect threshold); higher = less potent
Outline: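 Each well of a 96-well plate received 50 C. elegans N2 L1 larvae, which grew for 48 h at 20°C in K-medium containing killed bacteria, 1% DMSO and the chemical at 0.5, 1, 5, 10, 50, 100 or 200 µM. A Biosort recorded the extinction of every worm as its size, and these readings were log-transformed and averaged per well. The lowest effective concentration is defined as the first dose at which the plate-adjusted mean size falls below the threshold and stays below it at all higher doses; that threshold is 5.665.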

| Structure (SMILES) | AC50 for larval growth inhibition [1] [µM] | mean nematode size ln(EXT) (ln) ([2]; 0.5 µM) | mean nematode size ln(EXT) (ln) ([2]; 1 µM) | mean nematode size ln(EXT) (ln) ([2]; 5 µM) | mean nematode size ln(EXT) (ln) ([2]; 10 µM) | mean nematode size ln(EXT) (ln) ([2]; 50 µM) | mean nematode size ln(EXT) (ln) ([2]; 100 µM) | mean nematode size ln(EXT) (ln) ([2]; 200 µM) | lowest effective concentration [3] [µM] |
| --- | --- | --- | --- | --- | --- | --- | --- | --- | --- |
| c1ccc2c(c1)oc1ccccc12 [Dibenzofuran] | 126 | 5.88 | 5.9 | 5.93 | 5.87 | 5.61 | 5.1 | 3.65 | 50 |
| CCCCOC(=O)CCCCC(=O)OCCCC [Dibutyl hexanedioate] | 58.5 | 5.86 | 5.83 | 5.8 | 5.76 | 5.27 | 3.38 | 3.38 | 50 |
| CCCCOC(=O)c1ccccc1C(=O)OCCCC [Dibutyl phthalate] | 20.9 | 6.09 | 6.09 | 5.61 | 5.99 | 4.67 | 5.62 | 5.42 | 50 |
| CCCCOC(=O)CCCCCCCCC(=O)OCCCC [Dibutyl sebacate] | 27 | 5.85 | 5.87 | 5.86 | 5.68 | 5.05 | 5.15 | 4.79 | 50 |
| N#Cc1c(Cl)cccc1Cl [Dichlobenil] | > 200 | 5.93 | 5.79 | 6.11 | 5.95 | 5.9 | 6.01 | 5.54 | 200 |
| Nc1c(Cl)cc([N+](=O)[O-])cc1Cl [Dichloran] | 14.4 | 6.01 | 5.9 | 5.93 | 5.73 | 4.94 | 4.92 | 4.96 | 50 |
| CC(Oc1ccc(Cl)cc1Cl)C(=O)O (stereo not given) [Dichlorprop] | 106 | 5.91 | 5.93 | 5.86 | 6.06 | 6.04 | 5.88 | 5.44 | 200 |
| COP(=O)(OC)OC=C(Cl)Cl [Dichlorvos] | 80.4 | 6.07 | 6.12 | 5.84 | 5.87 | 5.05 | 4.4 | 3.3 | 50 |
| COC(=O)C(C)Oc1ccc(Oc2ccc(Cl)cc2Cl)cc1 (stereo not given) [Diclofop-methyl] | > 200 | 6.06 | 6.74 | 6 | 5.92 | 5.56 | 5.39 | 4.62 | 50 |
| OC(c1ccc(Cl)cc1)(c1ccc(Cl)cc1)C(Cl)(Cl)Cl [Dicofol] | 10.8 | 5.64 | 5.63 | 5.3 | 4.39 | 3.83 | 3.61 | 3.35 | ≤ 0.5 |
| CC(C)(OOC(C)(C)c1ccccc1)c1ccccc1 [Dicumyl peroxide’-(Dioxydipropane-2,2-diyl)dibenzene)] | > 200 | 5.83 | 5.8 | 5.83 | 5.82 | 5.62 | 5.38 | 5.45 | 50 |
| C1CCC(SSC2CCCCC2)CC1 [Dicyclohexyl disulfide] | > 200 | 5.76 | 5.82 | 5.78 | 5.74 | 5.65 | 5.62 | 5.44 | 50 |
| CCCCCCCCCC[N+](C)(C)CCCCCCCCCC [Didecyl dimethyl ammonium chloride] | 17 | 5.9 | 5.91 | 5.88 | 5.51 | 3.71 | 3.63 | 3.62 | 10 |
| ClC1=C(Cl)[C@]2(Cl)[C@@H]3[C@@H]4C[C@@H]([C@H]5O[C@@H]45)[C@@H]3[C@@]1(Cl)C2(Cl)Cl [Dieldrin] | 171 | 5.78 | 5.82 | 5.39 | 5.26 | 5.12 | 5.07 | 4.21 | 5 |
| CCOS(=O)(=O)OCC [Diethyl sulfate] | 55 | 5.87 | 5.85 | 5.83 | 5.88 | 5.88 | 4.98 | 5.42 | 100 |
| CC/C(=C(/CC)c1ccc(O)cc1)c1ccc(O)cc1 [Diethylstilbestrol (DES)] | 87 | 6 | 6 | 5.97 | 5.96 | 5.99 | 5.73 | 5.61 | 200 |
| CC1COC(Cn2cncn2)(c2ccc(Oc3ccc(Cl)cc3)cc2Cl)O1 (stereo not given) [Difenoconazole] | 1.84 | 4.06 | 5.79 | 3.52 | 5.15 | 3.59 | 3.58 | 3.51 | 5 |
| CCCCCCOC(=O)c1ccccc1C(=O)OCCCCCC [Dihexyl phthalate] | > 200 | 5.8 | 5.83 | 5.89 | 5.83 | 5.81 | 5.73 | 5.5 | 200 |
| CC(C)COC(=O)CCCCC(=O)OCC(C)C [Diisobutyl adipate] | 53.6 | 5.93 | 5.89 | 5.73 | 5.85 | 5.74 | 4.35 | 5.38 | 100 |
| CC(C)COC(=O)c1ccccc1C(=O)OCC(C)C [Diisobutyl phthalate] | 96.3 | 5.93 | 5.94 | 5.9 | 5.95 | 6.12 | 5.58 | 5.43 | 100 |
| CC(C)CCCCCCCOC(=O)CCCCC(=O)OCCCCCCCC(C)C [Diisodecyl adipate] | > 200 | 5.86 | 5.91 | 5.83 | 5.89 | 5.89 | 5.89 | 5.53 | 200 |
| CC(C)CCCCCCCOC(=O)c1ccccc1C(=O)OCCCCCCCC(C)C [Diisodecyl phthalate] | > 200 | 5.44 | 5.55 | 5.58 | 5.72 | 5.68 | 5.67 | 5.66 | 200 |
| COc1ccc(C(=CC(=O)N2CCOCC2)c2ccc(Cl)cc2)cc1OC [Dimethomorph] | 117 | 6 | 5.98 | 6.05 | 6.03 | 5.92 | 5.54 | 4.95 | 100 |

| Structure (SMILES) | AC50 for larval growth inhibition [1] [µM] | mean nematode size ln(EXT) (ln) ([2]; 0.5 µM) | mean nematode size ln(EXT) (ln) ([2]; 1 µM) | mean nematode size ln(EXT) (ln) ([2]; 5 µM) | mean nematode size ln(EXT) (ln) ([2]; 10 µM) | mean nematode size ln(EXT) (ln) ([2]; 50 µM) | mean nematode size ln(EXT) (ln) ([2]; 100 µM) | mean nematode size ln(EXT) (ln) ([2]; 200 µM) | lowest effective concentration [3] [µM] |
| --- | --- | --- | --- | --- | --- | --- | --- | --- | --- |
| COC(=O)CCCCC(=O)OC [Dimethyl adipate] | > 200 | 5.82 | 5.88 | 5.81 | 5.79 | 5.85 | 5.85 | 5.65 | 200 |
| COS(=O)(=O)OC [Dimethyl sulfate] | 61.5 | 5.83 | 5.97 | 6.03 | 5.92 | 5.98 | 5.28 | 5.61 | 100 |
| COC(=O)c1ccc(C(=O)OC)cc1 [Dimethyl terephthalate] | > 200 | 5.9 | 5.9 | 5.87 | 5.83 | 5.81 | 5.83 | 5.09 | 200 |
| CC(C)(C)C(O)/C(=C/c1ccc(Cl)cc1Cl)n1cncn1 (stereo not given) [Diniconazole] | 38.3 | 5.97 | 5.84 | 5.68 | 5.59 | 4.97 | 3.98 | 4.28 | 10 |
| CCC(C)c1cc([N+](=O)[O-])cc([N+](=O)[O-])c1O (stereo not given) [Dinoseb] | > 200 | 6.02 | 5.96 | 5.94 | 5.91 | 5.82 | 5.56 | 5.04 | 100 |
| CN(C)CCOC(c1ccccc1)c1ccccc1 [Diphenhydramine hydrochloride] | > 200 | 5.87 | 5.9 | 5.91 | 5.91 | 5.78 | 5.78 | 5.39 | 200 |
| c1ccc(Nc2ccccc2)cc1 [Diphenylamine] | 7.4 | 5.86 | 5.75 | 5.83 | 4.11 | 3.96 | 3.87 | 4.5 | 10 |
| c1ccc2c(c1)Cc1ccccc1-2 [Diphenylenemethane] | 39.2 | 6.07 | 6.06 | 6.03 | 5.92 | 4.4 | 4.02 | 3.5 | 50 |
| CCN(CC)C(=S)SSC(=S)N(CC)CC [Disulfiram] | > 200 | 5.96 | 6 | 6.03 | 5.99 | 5.86 | 5.59 | 4.56 | 100 |
| CCOP(=S)(OCC)SCCSCC [Disulfoton] | > 200 | 6.1 | 6.13 | 5.9 | 6.03 | 5.93 | 5.72 | 5.04 | 200 |
| CSC(=O)c1c(C(F)F)nc(C(F)(F)F)c(C(=O)SC)c1CC(C)C [Dithiopyr] | 66.4 | 6.12 | 6.03 | 6.04 | 5.65 | 4.72 | 4.61 | 3.44 | 10 |
| O=C1c2c(O)cccc2Cc2cccc(O)c21 [Dithranol] | 189 | 5.83 | 5.82 | 5.81 | 5.77 | 5.67 | 5.74 | 4.35 | 200 |
| CN(C)C(=O)Nc1ccc(Cl)c(Cl)c1 [Diuron] | 179 | 6.19 | 6.62 | 6.24 | 6.31 | 6.48 | 6.26 | 5.16 | 200 |
| CCCCC(CC)COC(=O)CC(C(=O)OCC(CC)CCCC)S(=O)(=O)O (stereo not given) [Docusate sodium] | 57.1 | 5.96 | 5.98 | 5.93 | 5.93 | 4.65 | 4.05 | 3.28 | 50 |
| CCCCCCCCCCCC[N+](C)(C)C [Dodecyl trimethyl ammonium chloride] | 199 | 5.76 | 6.02 | 5.88 | 5.9 | 5.76 | 5.65 | 4.53 | 100 |
| CCCCCCCCCCCCc1ccccc1S(=O)(=O)O [Dodecylbenzenesulfonic acid, Na salt] | 50.2 | 5.73 | 5.72 | 5.8 | 5.99 | 4.92 | 3.85 | 3.24 | 50 |
| CN1CCN(c2ccccc2/C=C2\SCCN(c3ccc(Cl)c(Cl)c3)C2=O)CC1 [Elzasonan] | 62.7 | 5.89 | 5.8 | 5.84 | 5.58 | 4.76 | 4.27 | 3.67 | 10 |
| CC[C@H](C)C1O[C@]2(C=C[C@@H]1C)C[C@@H]1C[C@@H](C/C=C(\C)[C@@H](O[C@H]3C[C@H](OC)[C@@H](O[C@H]4C[C@H](OC)[C@H](NC)[C@H](C)O4)[C@H](C)O3)[C@@H](C)/C=C/C=C3\CO[C@@H]4[C@H](O)C(C)=C[C@@H](C(=O)O1)[C@]34O)O2 (stereo not given in full) [Emamectin benzoate] | < 0.5 | 3.52 | 3.7 | 3.74 | 3.6 | 3.65 | 3.54 | 4.24 | ≤ 0.5 |
| O=S1OCC2C(CO1)C1(Cl)C(Cl)=C(Cl)C2(Cl)C1(Cl)Cl (stereo not given) [Endosulfan] | 6.12 | 5.74 | 5.72 | 5.08 | 3.84 | 3.51 | 3.24 | 3.47 | 5 |
| O=C(O)[C@@H]1[C@H](C(=O)O)[C@H]2CC[C@@H]1O2 [Endothal] | > 200 | 5.86 | 5.85 | 5.91 | 5.82 | 5.56 | 5.71 | 5.15 | 200 |
| ClC1=C(Cl)C2(Cl)C3C4CC(C5OC45)C3C1(Cl)C2(Cl)Cl (stereo not given) [Endrin] | 8.83 | 5.93 | 5.85 | 4.99 | 4.95 | 3.81 | 3.9 | 3.75 | 5 |
| CC(C)[C@H](C(=O)O[C@H](C#N)c1cccc(Oc2ccccc2)c1)c1ccc(Cl)cc1 [Esfenvalerate] | > 200 | 5.76 | 5.83 | 5.9 | 5.73 | 5.74 | 5.76 | 5.64 | 200 |
